These results are taken from patent US20220008350A1, “PROCESS FOR ENGINEERING TARGETED NANOPARTICLES” (University of North Texas Health Science Center, priority 2018, published 2022).

Data set [1] addresses ATP-dependent drug efflux pump glycoprotein (P-gp) (Homo sapiens, UniProt P08183). The note with it: cited from earlier work.
Data set [2] is described as follows: In vivo bone retention (intraosseous injection). The note with it: injected into mouse tibia, live animal imaging up to 72 hours, NIR dye. The procedure:
In vivo bone retention. […] Animals were imaged initially and at time points: 1 hour, 24 hours, 48 hours, and 72 hours to assess for NIR signal on IVIS animal imager. Fluorescent signal was quantified at each time and compared to the signal for the initial time point of each mouse to give the percentage of retained nanoparticle in the bone. Additionally, half-life of nanoparticle signal in the bone was calculated with the following equation: N(t)=N0(½)^(t/t1/2).

For data set [3], the system named is integrin αVβ3 surface expression in C4-2B prostate cancer cells. The data set can be described thus: αVβ3 protein stimulation and verification (immunocytochemistry). The format is cell-based, human. The settings on record: C4-2B cells, 200 ng/mL CXCL12, after first hour, constant for 12 hours. The procedure:
αVβ3 Protein Stimulation and Verification. C4-2B cells were grown on glass coverslips in a six-well dish and then stimulated to express αVβ3 by treatment with 200 ng/mL of recombinant human CXCL12 (R&D Systems, Minneapolis, Minn.) for 1, 6, or 12 hours at 37° C. After cells were stimulated they were rinsed with PBS, fixed with 4% formaldehyde (Affymetrix) for 10 min at room temperature, washed twice with PBS, and blocked for 1 hour with 1% BSA in PBS. Next cells were incubated for 4 hours with a 1:100 dilution of anti-integrin αVβ3 antibody, clone LM609 (Millipore). Incubation was followed by three washes with PBS, and then incubated for 45 minutes with a 1:200 dilution of the goat anti-mouse IgG (H+L) secondary antibody, Alexa Fluor 488 conjugate (Life Technologies). Cells were washed twice more and mounted on slides with Prolong Gold antifade reagent with DAPI (Invitrogen). Fluorescent images were taken with Olympus AX70 Florescent Microscope.

ATP-dependent drug efflux pump glycoprotein (P-gp), sequence (P08183 whole entry): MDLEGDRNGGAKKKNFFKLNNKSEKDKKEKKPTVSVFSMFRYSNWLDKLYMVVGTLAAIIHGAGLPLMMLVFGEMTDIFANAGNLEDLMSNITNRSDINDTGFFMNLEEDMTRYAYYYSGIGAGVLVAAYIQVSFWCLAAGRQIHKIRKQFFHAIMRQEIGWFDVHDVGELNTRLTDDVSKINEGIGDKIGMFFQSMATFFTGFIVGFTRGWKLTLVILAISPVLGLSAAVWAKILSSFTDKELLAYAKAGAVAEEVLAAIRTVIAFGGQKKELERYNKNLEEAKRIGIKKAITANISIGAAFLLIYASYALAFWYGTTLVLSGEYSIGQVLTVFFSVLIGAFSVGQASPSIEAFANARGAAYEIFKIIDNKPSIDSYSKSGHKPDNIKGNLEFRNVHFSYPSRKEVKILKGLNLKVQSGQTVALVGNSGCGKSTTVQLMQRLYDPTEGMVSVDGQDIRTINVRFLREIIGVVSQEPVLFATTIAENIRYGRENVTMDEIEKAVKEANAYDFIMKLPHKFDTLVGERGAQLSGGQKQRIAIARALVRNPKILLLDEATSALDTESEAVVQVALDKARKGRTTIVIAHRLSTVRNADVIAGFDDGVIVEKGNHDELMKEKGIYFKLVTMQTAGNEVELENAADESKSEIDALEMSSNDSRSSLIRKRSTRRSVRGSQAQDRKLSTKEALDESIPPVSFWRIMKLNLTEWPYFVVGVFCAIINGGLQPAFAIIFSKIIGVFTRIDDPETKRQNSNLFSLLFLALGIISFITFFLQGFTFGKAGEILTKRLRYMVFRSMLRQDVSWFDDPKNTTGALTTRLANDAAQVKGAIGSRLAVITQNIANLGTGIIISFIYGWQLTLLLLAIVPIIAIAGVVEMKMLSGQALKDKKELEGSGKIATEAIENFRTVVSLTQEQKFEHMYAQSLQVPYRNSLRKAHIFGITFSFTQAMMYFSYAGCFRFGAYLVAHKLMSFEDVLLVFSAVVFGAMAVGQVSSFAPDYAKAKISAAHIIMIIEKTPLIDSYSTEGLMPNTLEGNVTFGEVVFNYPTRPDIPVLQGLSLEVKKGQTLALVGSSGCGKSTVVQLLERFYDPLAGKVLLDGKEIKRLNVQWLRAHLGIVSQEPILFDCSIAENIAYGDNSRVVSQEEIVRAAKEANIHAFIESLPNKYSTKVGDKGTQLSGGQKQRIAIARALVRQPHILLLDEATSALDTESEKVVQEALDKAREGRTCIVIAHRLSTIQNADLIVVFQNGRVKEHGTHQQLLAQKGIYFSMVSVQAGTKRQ

Consider `CO[C@H]1C(=O)[C@]2(C)[C@@H](OC)C[C@H]3OC[C@@]3(OC(C)=O)[C@H]2[C@H](OC(=O)c2ccccc2)[C@]2(O)C[C@H](OC(=O)[C@H](O)[C@@H](NC(=O)OC(C)(C)C)c3ccccc3)C(C)=C1C2(C)C` [Cabazitaxel], for which, in data set [1], the “substrate affinity for P-gp” value is reported as “lower substrate affinity”.

Regarding `CCCN1C(=CC=C2CCCC(C=CC3=[N+](CCC)c4ccccc4C3(C)C)=C2Cl)C(C)(C)c2ccccc21.[I-]` [dye, IR-780 dye], in data set [2], the “retention and half-life in the bone” value is given as “equivalent regarding retention in the bone”.

For “C-X-C motif chemokine ligand 12 [CXCL12]”, the “increase in expression level of αVβ3” value in data set [3] is listed as “approximately 2 fold”.
